Assay results reported in ChEMBL document CHEMBL5625249, “Optimization and antifungal activity of quinoline derivatives linked to chalcone moiety combined with FLC against Candida albicans” (Eur J Med Chem, 2023).
Converted amounts (≈) assume the structure as drawn. The source made the active and inactive calls. The rule behind the calls is not given here.

Tests used:
Candida albicans [1] = experiment: In vivo antifungal activity against FLC-resistant Candida albicans ATCC 14053 infected in Balb/c mouse assessed as restoration of normal kidney morphology at 15 mg/kg, ig measured after 6 days by H and E staining based histopathological analysis; format: functional, organism-based; conditions: time 6.0 day
Candida albicans [2] = experiment: In vivo antifungal activity against FLC-resistant Candida albicans ATCC 14053 infected in Balb/c mouse assessed as increase in organ coefficients of spleen at 7.5 to 15 mg/kg, ig measured after 6 days in presence of fluconazole; format: functional, organism-based; conditions: dose 7.5-15 mg/kg, time 6.0 day
Candida albicans [3] = experiment: In vivo antifungal activity against FLC-resistant Candida albicans ATCC 14053 infected in Balb/c mouse assessed as increase in organ coefficients of thymus at 7.5 to 15 mg/kg, ig measured after 6 days in presence of fluconazole; format: functional, organism-based; conditions: dose 7.5-15 mg/kg, time 6.0 day
Candida albicans [4] = experiment: Antifungal activity against clinical FLC-resistant Candida albicans 381 measured after 24 hrs by microdilution method; format: functional
Candida albicans [5] = experiment: Synergistic antifungal activity against clinical FLC-resistant Candida albicans 799 measured after 24 hrs by microdilution method; format: functional
Candida albicans [6] = experiment: Antifungal activity against clinical FLC-resistant Candida albicans 4508 measured after 24 hrs by microdilution method; format: functional
Candida albicans [7] = experiment: Synergistic antifungal activity against Clinical FLC-resistant Candida albicans 23 assessed as fractional inhibitory concentration index measured after 24 hrs in presence of fluconazole by microdilution method; format: functional
Candida albicans [8] = experiment: Synergistic antifungal activity against clinical FLC-resistant Candida albicans 4508 measured after 24 hrs by microdilution method; format: functional
Candida albicans [9] = experiment: Synergistic antifungal activity against clinical FLC-resistant Candida albicans 3511 measured after 24 hrs by microdilution method; format: functional
Candida albicans [10] = experiment: Antifungal activity against clinical FLC-resistant Candida albicans 3511 measured after 24 hrs by microdilution method; format: functional
Candida albicans [11] = experiment: Antifungal activity against FLC-sensitive Candida albicans SC5314 measured after 24 hrs by microdilution method; format: functional
[12] = Toxicity in Balb/c mouse infected with FLC-resistant Candida albicans ATCC 14053 assessed as weight loss at 7.5 to 15 mg/kg, ig measured daily for 6 days in presence of fluconazole; format: organism-based; conditions: in vivo, po, 144 h, dose 7.5-15 mg/kg, time 6 day
[13] = Toxicity in Balb/c mouse assessed as weight loss at 15 mg/kg, ig measured daily for 6 days; format: organism-based; conditions: in vivo, po, 144 h, time 6 day
Candida albicans [14] = experiment: Synergistic antifungal activity against FLC-resistant Candida albicans ATCC 14053 cultured in spider medium assessed as inhibition of hyphal formation at 1 ug/ml measured after 2 hrs in presence of fluconazole by inverted microscopy; format: functional, organism-based; conditions: dose 1.0 µg/ml
Candida albicans [15] = experiment: Synergistic antifungal activity against clinical FLC-resistant Candida albicans 3511 assessed as fractional inhibitory concentration index measured after 24 hrs by microdilution method; format: functional
Candida albicans [16] = experiment: Synergistic antifungal activity against FLC-resistant Candida albicans ATCC 14053 cultured in SD +10% FBS liquid medium assessed as inhibition of hyphal formation at 1 ug/ml measured after 4 to 8 hrs in presence of fluconazole by inverted microscopy; format: functional, organism-based; conditions: dose 1.0 µg/ml, time 4-8 hrs
Candida albicans [17] = experiment: Synergistic antifungal activity against clinical FLC-resistant Candida albicans 602 measured after 24 hrs by microdilution method; format: functional
[18] = Cytotoxicity against human 16-HBE cells assessed as cell survival at 90 ug/ml measured after 24 hrs by MTS assay relative to control; format: toxicity, cell-based; conditions: 16-HBE cells (16HBE14o-), at 90 µg/mL, read-out: Survival
Candida albicans [19] = experiment: Induction of mitochondrial membrane potential loss in FLC-resistant Candida albicans ATCC 14053 at 1 ug/mL measured after 16 to 18 hrs in presence of fluconazole by JC-1 staining based fluorescence assay; format: functional, organism-based; conditions: dose 1.0 µg/ml, time 16-18 hrs
Candida albicans [20] = experiment: Synergistic antifungal activity against FLC-resistant Candida albicans ATCC 14053 assessed as inhibition of hyphal formation by measuring down regulation of CYR1 gene expression at 1 ug/ml measured after 16 to 18 hrs in presence of fluconazole by qRT-PCR analysis; format: functional, organism-based; conditions: dose 1.0 µg/ml, time 16-18 hrs
Candida albicans [21] = experiment: Synergistic antifungal activity against FLC-resistant Candida albicans ATCC 14053 cultured in spider medium assessed as inhibition of hyphal formation at 1 ug/ml measured after 4 to 8 hrs in presence of fluconazole and dibutyryl-cAMP by inverted microscopy; format: functional, organism-based; conditions: dose 1.0 µg/ml, time 4-8 hrs
Candida albicans [22] = experiment: Antifungal activity against clinical FLC-resistant Candida albicans 187 measured after 24 hrs by microdilution method; format: functional
Candida albicans [23] = experiment: Synergistic antifungal activity against FLC-resistant Candida albicans ATCC 14053 assessed as fractional inhibitory concentration index measured after 24 hrs by microdilution method; format: functional

In the case of `CN1CCN(c2nc3ccccc3cc2/C=C/C(=O)c2ccc(N3CCN(Cc4ccc(C(F)(F)F)cc4)CC3)cc2)CC1`, the Activity (Candida albicans [1]) is reported as “inactive”, the Activity (Candida albicans [2]) is reported as “Active” and the Activity (Candida albicans [3]) is reported as “Active”. The MIC80 (Candida albicans [4]) was > 40 µg/mL, the MIC80 (Candida albicans [5]) was 1.12 µg/mL and the MIC80 (Candida albicans [6]) was > 40 µg/mL. The “fractional inhibitory concentration index (FICI)” value (Candida albicans [7]) was 0.03, the MIC80 (Candida albicans [8]) was 1.22 µg/mL and the MIC80 (Candida albicans [9]) was 5.89 µg/mL. The MIC80 (Candida albicans [10]) was > 40 µg/mL, the MIC80 (Candida albicans [11]) was 27.8 µg/mL (≈ 46.3 µM) and the Activity [12] was “Non-Toxic”. For the same compound, the Activity [13] was “Non-Toxic”, the inhibition (Candida albicans [14]) was “inactive” and the “fractional inhibitory concentration index (FICI)” value (Candida albicans [15]) was 0.15. The inhibition (Candida albicans [16]) was “Active”, the MIC80 (Candida albicans [17]) was 5.67 µg/mL and the viability at 24 h, 90 ug/ml [18] was 76.5%. The Activity (Candida albicans [19]) was “Active”, the inhibition (Candida albicans [20]) was “Active” and the inhibition (Candida albicans [21]) was “inactive”. For the same compound, the MIC80 (Candida albicans [22]) was > 40 µg/mL and the “fractional inhibitory concentration index (FICI)” value (Candida albicans [23]) was 0.02.
